According to ChEMBL document CHEMBL4043229, “gem-Dithioacetylated indole derivatives as novel antileishmanial agents” (Bioorg Med Chem Lett, 2017):
Values after ≈ are worked out from the molar mass of the structure shown. Active and inactive are the calls of the source. No cut-off for these calls is given here.

What was measured:
[1] = test system: Leishmania donovani; test: Anti-leishmanial activity against promastigote stage of Leishmania donovani MHOM/IN/Dd8 harboring luciferase gene at 12.5 ug/ml after 72 hrs by luminescence assay relative to control; assay type: functional; conditions: for inhibition at 12.5 µg/mL: MHOM/IN/Dd8, 72 h
[2] = Cytotoxicity against mouse J774A1 cells after 72 hrs by MTT assay; assay type: cell-based, J774.A1
[3] = test system: Leishmania donovani; test: Anti-leishmanial activity against intracellular amastigote stage of Leishmania donovani harboring luciferase gene infected in mouse J774A1 cells at 12.5 ug/ml after 72 hrs by luminescence assay relative to control; assay type: functional; conditions: for inhibition at 12.5 µg/mL: J774.A1, 72 h

SMILES: CCCCn1cc(C(SC(C)=O)SC(C)=O)c2ccccc21
- inhibition at 12.5 µg/mL [1]: 74%

SMILES: CC(=O)SC(SC(C)=O)c1cn(CCCCOc2ccc(C#N)cc2)c2ccccc12
- CC50 at 72 h [2]: > 100 µg/mL
- inhibition at 12.5 µg/mL [1]: 90.9%
- inhibition at 12.5 µg/mL [3]: 97.8%

SMILES: N#Cc1ccc(OCCCCCn2cc(C=O)c3ccccc32)cc1
- inhibition [1]: inactive
- inhibition [3]: inactive

SMILES: CC(=O)SC(SC(C)=O)c1cn(C)c2ccccc12
- inhibition at 12.5 µg/mL [1]: 31%

SMILES: CC(=O)SC(SC(C)=O)c1cn(CCCCCCOc2ccc(C#N)cc2)c2ccccc12
- CC50 at 72 h [2]: > 100 µg/mL
- inhibition at 12.5 µg/mL [1]: 91.6%
- inhibition at 12.5 µg/mL [3]: 40.2%

SMILES: CC(=O)SC(SC(C)=O)c1cn(CCCCCOc2ccc(C#N)cc2)c2ccccc12
- CC50 at 72 h [2]: > 100 µg/mL
- inhibition at 12.5 µg/mL [1]: 96%
- inhibition at 12.5 µg/mL [3]: 99.8%

SMILES: CC(=O)SC(SC(C)=O)c1cn(CCCCCN2CCN(c3ccccc3)CC2)c2ccccc12
- CC50 at 72 h [2]: 13.8 µg/mL (≈ 27.1 µM)
- inhibition at 12.5 µg/mL [1]: 60.1%
- inhibition at 12.5 µg/mL [3]: 86.8%
